Target: T1, HIV protease (Human immunodeficiency virus type 1 group M subtype B, UniProt P03366)
T1 construct: made in house; host or cells: Escherichia coli
Test: Assay for Inhibition of Microbial Expressed Vital Protease (protease expressed in Eschericia coli, peptide substrate, HPLC of products)
Assay type: biochemical
Conditions: peptide substrate Val-Ser-Gln-Asn-(betanapthyl)Ala-Pro-Ile-Val 0.5 mg/mL; 50 mM Na acetate, pH 5.5, 30° C., 1 hour; 15 ul of 0.33 nM protease
Description: Assay for Inhibition of Microbial Expressed Vital Protease
Inhibition studies of the reaction of the protease expressed in Eschericia coli with a peptide substrate Val-Ser-Gln-Asn-(betanapthyl)Ala-Pro-Ile-Val, 0.5 mg/mL at the time the reaction is initiated! were in 50 mM Na acetate, p H 5.5, at 30° C. for 1 hour. Various concentrations of inhibitor in 1.0 ul DMSO were added to 25 ul of the peptide solution in water. The reaction is initiated by the addition of 15 ul of 0.33 nM protease (0.11 ng) in a solution of 0.133M Na acetate pH 5.5 and 0.1% bovine serum albumin. The reaction was quenched with 160 ul of 5% phosphoric acid. Products of the reaction were separated by HPLC (VYDAC wide pore 5 cm C-18 reverse phase, acetonitrile gradient, 0.1% phosphoric acid). The extent of inhibition of the reaction was determined from the peak heights of the products.

IC50 [µM] | SMILES
0.0115 to 0.058 | CC(C)(C)CC(=O)C[C@@H](CC1CCCCC1)[C@@H](O)C[C@@H](Cc1ccccc1)C(=O)N[C@H]1c2ccccc2C[C@H]1O [Compound B, N-(2(R)-hydroxy-1(S)-indanyl)-5(R)-cyclohexylmethyl-9,9-dimethyl-4(S)-hydroxy-7-oxo-2(R)-phenylmethyl decaneamide]
0.0115 to 0.058 | CCCCC(=O)C[C@@H](CC1CCCCC1)[C@@H](O)C[C@@H](Cc1ccccc1)C(=O)N[C@H]1c2ccccc2C[C@H]1O [Compound A, N-(2(R)-hydroxy-1(S)-indanyl)-5(R)-cyclohexylmethyl-4(S)-hydroxy-7-oxo-2(R) -phenylmethyl undecaneamide]

— patent US5502053A, “HIV protease inhibitor compounds” (Merck & Co., Inc., priority 1994, dated 1996)
